Laboratory results taken from patent US12473262B2, “Aryl hydrocarbon receptor activators” (Oregon State University, priority 2019, dated 2025).

Target: aryl hydrocarbon receptor (AhR) (Mus musculus (Mouse), UniProt P30561)
Assay: AhR ligand screening: AhRE-luciferase reporter in transfected Hepa1 cells
Format: cell-based
Conditions: for Fold @ 1 nM: fold change of luciferase expression at 1 nM test compound relative to vehicle (0.1% DMSO); for Fold @ 100 nM: fold change of luciferase expression at 100 nM test compound relative to vehicle (0.1% DMSO); for Fold @ 10 uM: fold change of luciferase expression at 10 uM test compound relative to vehicle (0.1% DMSO); for Fold relative to benchmark @ 100 nM: luciferase expression at 100 nM test compound relative to 100 nM benchmark compound 11-cl-BBQ
Text: The AhR is a ligand-activated transcription factor that dimerizes with ARNT to regulate gene expression, and genes that are regulated by AhR ligands have AhR response elements (AhRE) in their promotor regions.
Briefly, Hepa1 cells were transfected with a reporter construct consisting of AhRE linked to luciferase. The addition of AhR ligands to the transfected cells induces luciferase production that is directly proportional to the amount of AhR activation. We used this reporter system to identify novel compounds with AhR-activating properties. Transfected Hepa1 cells were plated at a density of 1×10^4 cells/well in 100 μL of cell culture media in 96 well plates and grown overnight. […] Following incubation with the compounds, the media was removed, and cells were harvested with lysis buffer. The lysates were transferred to opaque 96 well plates, where they were assayed well-by-well for luciferase activity by injection of luciferase assay substrate with a 2 sec mixing time and 15 sec integration period on a Tropix TR717 microplate luminometer. Data were expressed as fold induction of luciferase relative to vehicle (0.1% DMSO) treated cells.

Sequence of aryl hydrocarbon receptor (AhR) (P30561 10-805): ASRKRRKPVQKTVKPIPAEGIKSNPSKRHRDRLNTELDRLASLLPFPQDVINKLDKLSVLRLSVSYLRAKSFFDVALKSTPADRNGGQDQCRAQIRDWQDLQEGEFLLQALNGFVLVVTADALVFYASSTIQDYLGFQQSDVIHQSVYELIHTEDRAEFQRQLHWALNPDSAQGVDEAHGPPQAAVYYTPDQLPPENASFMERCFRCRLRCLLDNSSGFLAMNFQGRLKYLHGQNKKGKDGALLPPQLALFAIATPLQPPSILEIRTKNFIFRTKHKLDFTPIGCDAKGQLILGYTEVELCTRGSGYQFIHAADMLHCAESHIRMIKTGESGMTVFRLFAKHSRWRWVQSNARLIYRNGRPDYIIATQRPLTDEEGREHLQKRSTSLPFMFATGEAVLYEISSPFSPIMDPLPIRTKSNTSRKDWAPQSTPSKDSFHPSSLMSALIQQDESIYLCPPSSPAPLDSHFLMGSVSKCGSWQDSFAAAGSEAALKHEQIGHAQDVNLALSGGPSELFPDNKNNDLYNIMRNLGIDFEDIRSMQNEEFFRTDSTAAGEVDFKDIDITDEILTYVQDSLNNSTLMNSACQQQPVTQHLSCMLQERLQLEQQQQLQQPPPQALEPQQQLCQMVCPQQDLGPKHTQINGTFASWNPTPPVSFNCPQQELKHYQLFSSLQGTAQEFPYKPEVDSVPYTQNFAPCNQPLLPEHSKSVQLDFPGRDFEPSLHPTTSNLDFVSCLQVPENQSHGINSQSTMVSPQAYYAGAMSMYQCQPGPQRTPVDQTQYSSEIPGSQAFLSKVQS
Sequence of aryl hydrocarbon receptor (AhR) (P53762 whole entry partner): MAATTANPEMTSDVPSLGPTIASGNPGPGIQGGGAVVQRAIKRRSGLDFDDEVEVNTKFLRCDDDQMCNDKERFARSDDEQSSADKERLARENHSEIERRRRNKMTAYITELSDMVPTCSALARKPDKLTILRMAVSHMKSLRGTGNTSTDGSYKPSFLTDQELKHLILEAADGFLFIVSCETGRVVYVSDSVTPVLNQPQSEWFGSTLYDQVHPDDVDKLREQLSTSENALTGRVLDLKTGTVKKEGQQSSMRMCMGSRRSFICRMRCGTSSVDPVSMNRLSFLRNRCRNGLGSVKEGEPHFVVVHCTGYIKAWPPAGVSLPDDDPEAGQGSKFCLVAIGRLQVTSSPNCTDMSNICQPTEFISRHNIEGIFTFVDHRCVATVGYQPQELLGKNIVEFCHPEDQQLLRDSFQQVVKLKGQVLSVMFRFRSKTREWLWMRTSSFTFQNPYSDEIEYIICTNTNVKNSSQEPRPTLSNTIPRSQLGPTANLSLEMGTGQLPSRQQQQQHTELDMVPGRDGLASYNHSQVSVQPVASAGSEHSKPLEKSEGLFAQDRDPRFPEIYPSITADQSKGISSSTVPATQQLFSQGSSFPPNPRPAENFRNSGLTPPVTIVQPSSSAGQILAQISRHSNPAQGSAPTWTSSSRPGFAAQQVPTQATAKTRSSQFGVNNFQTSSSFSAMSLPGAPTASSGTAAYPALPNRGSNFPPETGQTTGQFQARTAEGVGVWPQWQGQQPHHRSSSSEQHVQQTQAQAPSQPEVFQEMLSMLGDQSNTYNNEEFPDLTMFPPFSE

Structure (SMILES)	Fold @ 1 nM	Fold @ 100 nM	Fold @ 10 uM	Fold relative to benchmark @ 100 nM
COc1ccc(C(=O)n2c(-c3cccc(C(F)(F)F)c3)nc3cc(Cl)ccc32)cc1 [Compound 764]	1 fold	2 fold	20 fold	0.08 fold
O=C(c1ccc(F)c(F)c1)n1c(-c2c3ccccc3cc3ccccc23)nc2cc(Cl)ccc21 [Compound 641]	1 fold	1 fold	21 fold	0.11 fold
N#Cc1ccc(C(=O)n2c(-c3cccc4ccccc34)nc3ccc(Cl)cc32)cc1 [Compound 689]	1 fold	28 fold	47 fold	1.08 fold
c1ccc2c(c1)Cn1c3ccccc3c3ccnc-2c31 [Compound 526]	2.7 fold	10 fold	28 fold	0.71 fold
Cc1ccc(S(=O)(=O)n2c(-c3cccc4ccccc34)nc3cc(F)ccc32)cc1 [Compound 631, 5-fluoro-2-(naphthalen-1-yl)-1-tosyl-1H-benzo[d]imidazole]	1 fold	1 fold	7 fold	0.11 fold
CN(C)c1ccc(C(=O)n2c(-c3cccc4ccccc34)nc3cc(Cl)ccc32)cc1 [Compound 685]	1 fold	13 fold	28 fold	0.5 fold
Cc1ccc(C(=O)n2c(-c3cccc4ccccc34)nc3cc(Cl)ccc32)cc1 [Compound 697]	1 fold	23 fold	22 fold	0.88 fold
O=C(c1ccccc1)n1c(-c2cc3ccccc3o2)nc2ccc(Cl)cc21 [Compound 588]	1 fold	5 fold	30 fold	0.33 fold
O=C(c1ccc(F)c(F)c1)n1c(-c2ccc(F)c(Cl)c2)nc2ccc(Cl)cc21 [Compound 581]	1 fold	1 fold	15 fold	0.07 fold
O=C1c2ccccc2-c2nc3cc(Cl)ccc3n21 [Compound 489, 5-chloro-1,8-diazatetracyclo-[7.7.0.0^2,70.^10,15]hexadeca-2,4,6,8,10,12,14-heptaen-16-one]	1 fold	1 fold	5 fold	0.03 fold
O=C(c1ccccc1)n1c(-c2cccc3ccccc23)nc2cc(Br)ccc21 [Compound 691]	2 fold	26 fold	34 fold	1 fold
O=C(c1ccc(F)c(F)c1)n1c(-c2cccc3ccccc23)nc2cc(Cl)c(Cl)cc21 [Compound 692]	3 fold	24 fold	85 fold	0.92 fold
O=C1c2ccccc2-c2nc3ccc(Cl)cc3n21 [Compound 488, 4-chloro-1,8-diazatetracyclo[7.7.0.0^2,7.0^10,15]hexadeca-2,4,6,8,10,12,14-heptaen-16-one]	1 fold	1 fold	4 fold	0.03 fold
O=C(c1cccc2ccccc12)c1c[nH]c2cc(Cl)ccc12 [Compound 433]	1 fold	1 fold	7 fold	0.03 fold
O=C(c1ccc(F)c(F)c1)n1c(-c2ccccc2-c2ccccc2)nc2cc(Cl)ccc21 [Compound 766]	1 fold	2 fold	31 fold	0.08 fold
O=C(c1ccccc1)n1c(-c2cccc3ccccc23)nc2cc(F)ccc21 [Compound 583]	1 fold	5 fold	7 fold	0.33 fold
O=C(c1ccc(F)c(F)c1)n1c(-c2ccc3ccccc3c2)nc2cc(Cl)ccc21 [Compound 684]	1 fold	2 fold	56 fold	0.08 fold

Continued, values first:

Fold @ 1 nM	Fold @ 100 nM	Fold @ 10 uM	Fold relative to benchmark @ 100 nM	Structure (SMILES)
1 fold	1 fold	5 fold	0.03 fold	O=C(c1ccc2nc(-c3cccc4ccccc34)n(S(=O)(=O)c3ccc4ccccc4c3)c2c1)N1CCCCC1 [Compound 1341]
1 fold	1 fold	6 fold	0.03 fold	O=C(c1ccc2nc(-c3cccc4ccccc34)n(Cc3ccc(SC(F)(F)F)cc3)c2c1)N1CCCCC1 [Compound 1412]
1 fold	1 fold	4 fold	0.03 fold	O=C(c1ccc2c(c1)nc(-c1cccc3ccccc13)n2Cc1cccc2ccccc12)N1CCOCC1 [Compound 1408]
1 fold	1 fold	9 fold	0.02 fold	Fc1ccc(Cn2c(-c3cccc4ccccc34)nc3ccc(Cl)cc32)cc1F [Compound 888]
1 fold	21 fold	29 fold	0.84 fold	O=C(c1ccc2c(c1)OCCO2)n1c(-c2cccc3ccccc23)nc2cc(Cl)ccc21 [Compound 851]
1 fold	12 fold	68 fold	0.41 fold	O=C(c1ccc(F)c(F)c1)n1c(-c2ccc(Cl)c3ccccc23)nc2cc(Cl)ccc21 [Compound 869]
1 fold	1 fold	1 fold	0.03 fold	O=C(c1ccc2nc(-c3cccc4ccccc34)n(Cc3ccc(F)c(F)c3)c2c1)N1CCOCC1 [Compound 1330]
1 fold	2 fold	20 fold	0.07 fold	O=C(c1ccc2c(c1)nc(-c1cccc3ccccc13)n2Cc1ccc(F)cc1)N1CCOCC1 [Compound 1403]
1 fold	1 fold	10 fold	0.03 fold	O=C(c1ccc2c(c1)nc(-c1cccc3ccccc13)n2S(=O)(=O)c1ccc(Cl)cc1)N1CCCCC1 [Compound 1366]
1 fold	1 fold	8 fold	0.03 fold	N#Cc1ccc(S(=O)(=O)n2c(-c3cccc4ccccc34)nc3ccc(C(=O)N4CCCCC4)cc32)cc1 [Compound 1337]
1 fold	2 fold	32 fold	0.07 fold	Clc1ccc2c(c1)nc(-c1cccc3ccccc13)n2Cc1ccnc2ccccc12 [Compound 867]
1 fold	1 fold	8 fold	0.03 fold	O=C(c1ccc2c(c1)nc(-c1cccc3ccccc13)n2S(=O)(=O)c1ccc2ccccc2c1)N1CCCCC1 [Compound 1340]
1 fold	1 fold	4 fold	0.03 fold	COC(=O)c1ccc2c(c1)nc(-c1cccc3ccccc13)n2Cc1ccc(Cl)cc1 [Compound 1406]
1 fold	1 fold	2 fold	0.03 fold	O=C(c1ccc2nc(-c3cccc4ccccc34)n(S(=O)(=O)c3ccc(Cl)cc3)c2c1)N1CCOCC1 [Compound 1359]
1 fold	1 fold	1 fold	0.03 fold	O=C(c1ccc2nc(-c3cccc4ccccc34)n(S(=O)(=O)c3cccc(F)c3)c2c1)N1CCOCC1 [Compound 1357]
1 fold	1 fold	3 fold	0.03 fold	CN1CCN(C(=O)c2ccc3c(c2)nc(-c2cccc4ccccc24)n3Cc2ccc(F)c(F)c2)CC1 [Compound 1364]
1 fold	1 fold	3 fold	0.03 fold	O=C(c1ccc2nc(-c3cccc4ccccc34)n(S(=O)(=O)c3ccc(Cl)cc3)c2c1)N1CCCCC1 [Compound 1367]
1 fold	2 fold	2 fold	0.07 fold	COC(=O)c1ccc2c(c1)nc(-c1cccc3ccccc13)n2S(=O)(=O)c1ccc(C#N)cc1 [Compound 1361]
1 fold	22 fold	33 fold	0.88 fold	O=C(c1ccc2c(c1)OCCO2)n1c(-c2cccc3ccccc23)nc2cc(Cl)ccc21 [Compound 850]
